Assay results as given in patent publication US12491180B2, “Application of compound in treating pneumonia” (SHENZHEN OPTIMUM BIOLOGICAL TECHNOLOGY CO., LTD., priority 2019, dated 2025).
≈ marks a conversion by molar mass, not a printed value.

What was measured:
Assay in all cases: MIC, solid dilution method
[1] = system: Acinetobacter baumannii 6383; format: cell-based; settings: A.B 6383, CRE clinical isolate, MHA agar, 37° C., 16-20 hours, read-out: MIC
Procedure: (§1) CRE Acinetobacter baumannii 8476, 6383, a total of 2 strains; CRE Serratia marcescens 14541, a total of 1 strain; all collected in the Department of Infectious Diseases, West China Hospital, Chengdu, Sichuan Province, and kept in our laboratory.
(§2) The above-mentioned glycerol-preserved strains were taken out from the −80° C. refrigerator, streaked and inoculated on MHA plates, labeled, and cultured overnight in a 37° C. incubator.
(§3) The inoculum was prepared directly from bacterial suspension, and several recovered colonies were picked and directly prepared into a bacterial suspension with a turbidity of No. 0.5 McFarland units in normal saline, and a 10-fold dilution was made during inoculation.
(§4) 6 bottles of MHA culture medium 500 mL/bottle were prepared, and the pH was adjusted to 7.2-7.4, sterilized at 121° C. for 15 min, and the medium was placed in a 55° C. water bath to keep warm.
(§5) Sterile blank petri dishes were taken, and marked with each FL drug/concentration according to 2-fold dilution, and 10 concentrations of each drug starting from 8 μg/mL were tested.
(§6) […]; 20 mL was aspirated and added to a petri dish consistent with the mark, and then 20 mL of MHA culture medium was added to the rest of the drug-containing culture medium, mixed evenly, that is, the 2-fold diluted drug-containing culture medium; 20 mL was aspirated and added to the petri dish consistent with the mark, and then diluted to the 10th concentration and the […] respectively by repeating the above-mentioned steps, and then poured into the petri dish.
(§7) 4 bacterial control petri dishes without drug were prepared at the same time as a control.
(§8) The positioning needle and the inoculation needle were installed according to the order of placement of the colony on the inoculation plate. After inoculation, a bacterial solution circle was formed on the petri dish. After the bacterial solution was absorbed by the agar, the petri dish was placed in an incubator at 37° C. for overnight incubation (16-20 hours), and then taken out.
(§9) The minimum inhibitory concentrations of the compounds against the CRE and CSE strains were determined by the solid dilution method, and the results are shown in Tables 3 and 4.

[2] = system: Acinetobacter baumannii 8476; format: cell-based; settings: A.B 8476, CRE clinical isolate, MHA agar, 37° C., 16-20 hours, read-out: MIC
Procedure: as §1, §2, §3, §4, §5, §6, §7, §8, §9

[3] = system: Serratia marcescens 14541; format: cell-based; settings: 14541
Procedure: as §1, §2, §3, §4, §5, §6, §7, §8, §9

[4] = system: Escherichia coli 14828; format: cell-based; settings: E. coli 14828, CRE clinical isolate, MHA agar, 37° C., 16-20 hours, read-out: MIC
Procedure: as §2, §3, §4, §5, §6, §7, §8, §9

[5] = system: Escherichia coli 13897; format: cell-based; settings: E. coli 13897, CRE clinical isolate, MHA agar, 37° C., 16-20 hours, read-out: MIC
Procedure: as §2, §3, §4, §5, §6, §7, §8, §9

[6] = system: Klebsiella oxytoca 12391; format: cell-based; settings: K. ox 12391, CRE clinical isolate, MHA agar, 37° C., 16-20 hours, read-out: MIC
Procedure: as §2, §3, §4, §5, §6, §7, §8, §9

[7] = system: Klebsiella oxytoca 14151; format: cell-based; settings: K. ox 14151, CRE clinical isolate, MHA agar, 37° C., 16-20 hours, read-out: MIC
Procedure: as §2, §3, §4, §5, §6, §7, §8, §9

[8] = system: E. coli 11256; format: cell-based; settings: Escherichia coli; E. coli 11256; MHA agar, 37° C., 16-20 hours; read-out: MIC
Procedure: as §2, §3, §4, §5, §6, §7, §8, §9

[9] = system: Escherichia coli 11119; format: cell-based; settings: E. coli 11119, CRE clinical isolate, MHA agar, 37° C., 16-20 hours, read-out: MIC
Procedure: as §2, §3, §4, §5, §6, §7, §8, §9

[10] = system: Klebsiella oxytoca 6777; format: cell-based; settings: K. ox 6777, CRE clinical isolate, MHA agar, 37° C., 16-20 hours, read-out: MIC
Procedure: as §2, §3, §4, §5, §6, §7, §8, §9

[11] = system: Klebsiella oxytoca 14153; format: cell-based; settings: K. ox 14153, CRE clinical isolate, MHA agar, 37° C., 16-20 hours, read-out: MIC
Procedure: as §2, §3, §4, §5, §6, §7, §8, §9

[12] = system: Klebsiella pneumoniae 13249; format: cell-based; settings: K.p 13249, CRE clinical isolate, MHA agar, 37° C., 16-20 hours, read-out: MIC
Procedure: (§10) (2) Clinical isolated strains: CRE Klebsiella pneumoniae 5846, 11544, 12559, 13249 and CSE Klebsiella pneumoniae 8733, a total of 5 strains;
as §2, §3, §4, §5, §6, §7, §8, §9

[13] = system: Klebsiella pneumoniae 8733; format: cell-based; settings: K.p 8733, CSE clinical isolate, MHA agar, 37° C., 16-20 hours, read-out: MIC
Procedure: as §10, §2, §3, §4, §5, §6, §7, §8, §9

[14] = system: Klebsiella pneumoniae 5846; format: cell-based; settings: K.p 5846, CRE clinical isolate, MHA agar, 37° C., 16-20 hours, read-out: MIC
Procedure: as §10, §2, §3, §4, §5, §6, §7, §8, §9

[15] = system: Klebsiella pneumoniae 12559; format: cell-based; settings: K.p 12559, CRE clinical isolate, MHA agar, 37° C., 16-20 hours, read-out: MIC
Procedure: as §10, §2, §3, §4, §5, §6, §7, §8, §9

[16] = system: Klebsiella pneumoniae 11544; format: cell-based; settings: K.p 11544, CRE clinical isolate, MHA agar, 37° C., 16-20 hours, read-out: MIC
Procedure: as §10, §2, §3, §4, §5, §6, §7, §8, §9

[17] = system: Escherichia coli BAA-2452; format: cell-based; settings: BAA2452, E. coli BAA-2452, standard strain, MHA agar, 37° C., 16-20 hours, read-out: MIC
Procedure: (§11) (1) Standard strains: Escherichia coli BAA-2452, Escherichia coli ATCC25922, Klebsiella pneumoniae BAA-1705; all purchased from ATCC.
as §2, §3, §4, §5, §6, §7, §8, §9

[18] = system: Escherichia coli ATCC25922; format: cell-based; settings: E. coli ATCC25922, standard strain, MHA agar, 37° C., 16-20 hours, read-out: MIC
Procedure: as §11, §2, §3, §4, §5, §6, §7, §8, §9

[19] = system: Klebsiella pneumoniae BAA-1705; format: cell-based; settings: BAA1705, K.p BAA-1705, standard strain, MHA agar, 37° C., 16-20 hours, read-out: MIC
Procedure: as §11, §2, §3, §4, §5, §6, §7, §8, §9

[20] = system: Enterobacter cloacae 11090; format: cell-based; settings: E. cl 11090, CRE clinical isolate, MHA agar, 37° C., 16-20 hours, read-out: MIC
Procedure: as §2, §3, §5, §7, §8

[21] = system: Enterobacter cloacae 11699; format: cell-based; settings: E. cl 11699, CSE clinical isolate, MHA agar, 37° C., 16-20 hours, read-out: MIC
Procedure: as §2, §3, §5, §7, §8

[22] = system: Enterobacter cloacae 14653; format: cell-based; settings: E. cl 14653, CRE clinical isolate, MHA agar, 37° C., 16-20 hours, read-out: MIC
Procedure: as §2, §3, §5, §7, §8

[23] = system: E. ae 14186; format: cell-based, Enterobacter aerogenes; settings: Klebsiella aerogenes, 14186
Procedure: as §2, §3, §4, §5, §6, §7, §8, §9

[24] = system: Citrobacter freundii 9484; format: cell-based; settings: C.f 9484, CRE clinical isolate, MHA agar, 37° C., 16-20 hours, read-out: MIC
Procedure: (§12) CRE Citrobacter freundii 9434, 9484 and CSE Citrobacter freundii 7646, a total of 3 strains;
as §2, §3, §4, §5, §6, §7, §8, §9

[25] = system: Citrobacter freundii 9434; format: cell-based; settings: 9434
Procedure: as §12, §2, §3, §4, §5, §6, §7, §8, §9

[26] = system: Citrobacter freundii 7646; format: cell-based; settings: C.f 7646, CSE clinical isolate, MHA agar, 37° C., 16-20 hours, read-out: MIC
Procedure: as §12, §2, §3, §4, §5, §6, §7, §8, §9

[27] = system: Enterobacter aerogenes 8193; format: cell-based; settings: Klebsiella aerogenes; E. ae 8193, CRE clinical isolate; MHA agar, 37° C., 16-20 hours; read-out: MIC
Procedure: CRE Enterobacter aerogenes 8193, a total of 1 strain;
as §2, §3, §4, §5, §6, §7, §8, §9

C[C@@H](O)[C@H]1C(=O)N2C(C(=O)O)=C(S[C@@H]3CN[C@H](C(=O)N(C)C)C3)[C@H](C)[C@H]12 [Meropenem, reference compound] gave an MIC [1] of 64 µg/mL (≈ 167 µM), an MIC [2] of 64 µg/mL (≈ 167 µM) and an MIC [3] of 128 µg/mL (≈ 334 µM). It also gave an MIC [4] of 8 µg/mL (≈ 20.9 µM), an MIC [5] of 4 µg/mL (≈ 10.4 µM) and an MIC [6] of 2 µg/mL (≈ 5.22 µM). For the same compound, the MIC [7] was 16 µg/mL (≈ 41.7 µM), the MIC [8] was < 0.015 µg/mL and the MIC [9] was 16 µg/mL (≈ 41.7 µM). It also gave an MIC [10] of 16 µg/mL (≈ 41.7 µM), an MIC [11] of 32 µg/mL (≈ 83.4 µM) and an MIC [12] of 64 µg/mL (≈ 167 µM). It also gave an MIC [13] of 0.03 µg/mL (≈ 0.0782 µM), an MIC [14] of 8 µg/mL (≈ 20.9 µM) and an MIC [15] of 4 µg/mL (≈ 10.4 µM). The MIC [16] was 32 µg/mL (≈ 83.4 µM), the MIC [17] was 16 µg/mL (≈ 41.7 µM) and the MIC [18] was < 0.015 µg/mL. For the same compound, the MIC [19] was 16 µg/mL (≈ 41.7 µM), the MIC [20] was 0.5 µg/mL (≈ 1.3 µM) and the MIC [21] was < 0.015 µg/mL. It also gave an MIC [22] of 64 µg/mL (≈ 167 µM), an MIC [23] of 0.125 µg/mL (≈ 0.326 µM) and an MIC [24] of 0.06 µg/mL (≈ 0.156 µM). For the same compound, the MIC [25] was > 128 µg/mL, the MIC [26] was < 0.015 µg/mL and the MIC [27] was 16 µg/mL (≈ 41.7 µM).
